Laboratory results as given in patent publication US12195439B1, “C1-substituted isopropylamine fused heterocyclic mescaline derivatives” (Enveric Biosciences Canada Inc., priority 2022, dated 2025).
Read-outs that look alike come from different tables or passages of the source.

How the values were obtained:
[1] = molecular target: T1, 5-HT1A receptor (Homo sapiens, UniProt P08908); assay: 5-HT1A receptor radioligand competition assay (SPA); format: binding; settings: competition with 0.5 nM [3H]8-hydroxy-DPAT, membranes containing 5-HT1A
T1 construct: purchased Perkin Elmer 6110501400UA
T1 sequence (P08908 1-422): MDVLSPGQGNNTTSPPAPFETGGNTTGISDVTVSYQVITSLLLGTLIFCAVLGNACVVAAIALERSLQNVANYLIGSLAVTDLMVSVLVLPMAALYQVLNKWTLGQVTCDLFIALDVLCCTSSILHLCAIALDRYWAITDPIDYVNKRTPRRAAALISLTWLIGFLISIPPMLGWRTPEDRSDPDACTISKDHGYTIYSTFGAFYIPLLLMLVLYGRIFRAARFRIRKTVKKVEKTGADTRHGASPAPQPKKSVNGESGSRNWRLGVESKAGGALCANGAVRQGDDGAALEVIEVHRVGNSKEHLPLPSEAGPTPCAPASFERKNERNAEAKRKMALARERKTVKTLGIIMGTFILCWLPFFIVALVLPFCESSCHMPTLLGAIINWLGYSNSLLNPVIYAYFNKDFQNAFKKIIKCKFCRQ

[2] = molecular target: T1, 5-HT1A receptor; assay: Eurofins Cerep competition binding assay at 5-HT1A receptor; settings: 10 μM test ligand, [3H]8-OH-DPAT, recombinant receptor from HEK-293 cells; for inhibition at 10 µM: read-out: HT1A, percent of control-specific binding
[3] = molecular target: T2, 5-HT2B receptor (Homo sapiens, UniProt P41595); assay: Eurofins Cerep competition binding assay at 5-HT2B receptor; settings: 10 μM test ligand, [3H]mesulergine, recombinant receptor from CHO cells; for inhibition at 10 µM: read-out: HT2B, percent of control-specific binding
T2 construct: host or cells: CHO cells (membrane preparation)
T2 sequence (P41595 whole entry): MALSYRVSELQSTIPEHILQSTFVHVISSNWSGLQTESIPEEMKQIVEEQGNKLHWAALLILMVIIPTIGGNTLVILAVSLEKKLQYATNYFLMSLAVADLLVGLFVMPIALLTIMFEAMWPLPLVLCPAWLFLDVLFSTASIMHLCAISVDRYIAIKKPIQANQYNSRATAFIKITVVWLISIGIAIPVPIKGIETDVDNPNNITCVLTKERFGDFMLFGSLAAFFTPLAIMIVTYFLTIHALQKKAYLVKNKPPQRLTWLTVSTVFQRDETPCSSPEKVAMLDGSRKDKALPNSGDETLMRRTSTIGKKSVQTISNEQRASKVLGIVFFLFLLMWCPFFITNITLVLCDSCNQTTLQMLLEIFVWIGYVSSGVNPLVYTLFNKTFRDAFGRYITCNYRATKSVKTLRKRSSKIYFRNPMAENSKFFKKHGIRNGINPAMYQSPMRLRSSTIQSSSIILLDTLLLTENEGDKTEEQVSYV

[4] = molecular target: T3, 5-HT2C receptor (Homo sapiens, UniProt P28335); assay: Eurofins Cerep competition binding assay at 5-HT2C receptor; settings: 10 μM test ligand, [125I](±)DOI, recombinant receptor from HEK-293 cells; for inhibition at 10 µM: read-out: HT2C, percent of control-specific binding
T3 construct: host or cells: HEK-293 cells (membrane preparation)
T3 sequence (P28335 33-458): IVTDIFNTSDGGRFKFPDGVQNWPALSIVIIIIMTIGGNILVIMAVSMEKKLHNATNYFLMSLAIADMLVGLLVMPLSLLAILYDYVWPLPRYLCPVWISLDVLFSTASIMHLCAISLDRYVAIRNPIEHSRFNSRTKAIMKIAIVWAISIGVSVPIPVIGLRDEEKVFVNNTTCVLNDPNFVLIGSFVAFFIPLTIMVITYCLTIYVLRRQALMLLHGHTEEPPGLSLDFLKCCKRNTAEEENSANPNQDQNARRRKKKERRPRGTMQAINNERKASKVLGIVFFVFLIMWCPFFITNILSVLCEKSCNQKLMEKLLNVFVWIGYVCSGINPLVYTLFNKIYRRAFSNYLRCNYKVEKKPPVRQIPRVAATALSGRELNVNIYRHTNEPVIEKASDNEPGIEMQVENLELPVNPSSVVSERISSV

[5] = molecular target: T4, 5-HT7 receptor (Homo sapiens, UniProt P34969); assay: Eurofins Cerep competition binding assay at 5-HT7 receptor; settings: 10 μM test ligand, [3H]LSD, recombinant receptor from HEK-293 cells; for inhibition at 10 µM: read-out: HT7, percent of control-specific binding
T4 construct: host or cells: HEK-293 cells (membrane preparation)
T4 sequence (P34969 whole entry): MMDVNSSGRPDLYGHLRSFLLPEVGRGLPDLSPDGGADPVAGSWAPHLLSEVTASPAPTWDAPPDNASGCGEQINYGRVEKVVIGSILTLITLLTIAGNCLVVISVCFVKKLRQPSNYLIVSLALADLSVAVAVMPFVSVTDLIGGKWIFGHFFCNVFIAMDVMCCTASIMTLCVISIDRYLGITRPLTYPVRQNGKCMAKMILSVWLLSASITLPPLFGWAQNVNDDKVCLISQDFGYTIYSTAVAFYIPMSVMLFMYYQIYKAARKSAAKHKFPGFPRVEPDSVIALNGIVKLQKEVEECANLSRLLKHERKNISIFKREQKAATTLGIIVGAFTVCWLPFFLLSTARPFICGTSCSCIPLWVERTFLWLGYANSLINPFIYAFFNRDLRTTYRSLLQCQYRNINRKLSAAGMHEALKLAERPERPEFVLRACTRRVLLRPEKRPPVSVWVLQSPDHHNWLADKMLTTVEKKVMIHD

[6] = molecular target: T5, alpha2A receptor (Homo sapiens, UniProt P08913); assay: Eurofins Cerep competition binding assay at alpha2A receptor; settings: 10 μM test ligand, [3H]RX 821002, recombinant receptor from CHO cells; for inhibition at 10 µM: read-out: α-2A, percent of control-specific binding
T5 construct: host or cells: CHO cells (membrane preparation)
T5 sequence (P08913 1-465): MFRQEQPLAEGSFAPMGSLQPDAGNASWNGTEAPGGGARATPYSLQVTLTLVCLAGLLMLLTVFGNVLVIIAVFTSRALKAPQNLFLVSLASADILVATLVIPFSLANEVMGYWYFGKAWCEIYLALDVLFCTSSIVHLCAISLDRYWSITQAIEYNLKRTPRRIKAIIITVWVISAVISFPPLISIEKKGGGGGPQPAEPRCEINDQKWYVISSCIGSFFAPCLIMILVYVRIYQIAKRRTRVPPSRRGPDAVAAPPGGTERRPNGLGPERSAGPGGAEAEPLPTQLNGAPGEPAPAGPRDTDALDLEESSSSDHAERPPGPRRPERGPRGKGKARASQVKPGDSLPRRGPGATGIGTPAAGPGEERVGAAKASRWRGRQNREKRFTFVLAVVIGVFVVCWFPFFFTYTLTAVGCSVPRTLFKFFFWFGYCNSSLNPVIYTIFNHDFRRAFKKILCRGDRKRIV

[7] = molecular target: T6, serotonin transporter (SERT) (Homo sapiens, UniProt P31645); assay: biochemical; format: binding; settings: for SERT, percent of control-specific binding: 10 µM; for inhibition at 10 µM: read-out: SERT, percent of control-specific binding
T6 construct: host or cells: CHO cells (membrane preparation)
T6 sequence (P31645 whole entry): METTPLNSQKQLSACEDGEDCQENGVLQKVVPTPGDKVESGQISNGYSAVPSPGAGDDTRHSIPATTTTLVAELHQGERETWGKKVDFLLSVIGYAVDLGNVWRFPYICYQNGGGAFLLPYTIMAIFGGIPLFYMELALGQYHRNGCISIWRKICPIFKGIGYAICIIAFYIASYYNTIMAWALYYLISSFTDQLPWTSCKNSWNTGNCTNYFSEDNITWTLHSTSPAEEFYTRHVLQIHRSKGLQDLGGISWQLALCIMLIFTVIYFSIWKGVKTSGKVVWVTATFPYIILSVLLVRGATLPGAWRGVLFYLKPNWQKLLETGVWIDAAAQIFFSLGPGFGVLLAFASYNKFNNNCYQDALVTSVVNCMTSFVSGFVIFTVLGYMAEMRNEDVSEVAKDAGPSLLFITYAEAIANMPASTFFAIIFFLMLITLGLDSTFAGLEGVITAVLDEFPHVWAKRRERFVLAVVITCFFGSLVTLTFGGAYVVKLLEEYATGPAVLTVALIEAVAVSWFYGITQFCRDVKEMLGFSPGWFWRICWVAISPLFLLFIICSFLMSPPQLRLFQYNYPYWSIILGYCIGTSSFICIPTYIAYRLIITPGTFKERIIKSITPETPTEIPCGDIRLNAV

[8] = molecular target: T7, dopamine transporter (DAT) (Homo sapiens, UniProt Q01959); assay: Eurofins Cerep competition binding assay at dopamine transporter; settings: for DAT, percent of control-specific binding: 10 μM test ligand, [3H]BTCP, recombinant transporter from CHO cells; for inhibition at 10 µM: read-out: DAT, percent of control-specific binding, 10 μM test ligand, [3H]BTCP, recombinant transporter from CHO cells
T7 construct: host or cells: CHO cells (membrane preparation)
T7 sequence (Q01959 whole entry): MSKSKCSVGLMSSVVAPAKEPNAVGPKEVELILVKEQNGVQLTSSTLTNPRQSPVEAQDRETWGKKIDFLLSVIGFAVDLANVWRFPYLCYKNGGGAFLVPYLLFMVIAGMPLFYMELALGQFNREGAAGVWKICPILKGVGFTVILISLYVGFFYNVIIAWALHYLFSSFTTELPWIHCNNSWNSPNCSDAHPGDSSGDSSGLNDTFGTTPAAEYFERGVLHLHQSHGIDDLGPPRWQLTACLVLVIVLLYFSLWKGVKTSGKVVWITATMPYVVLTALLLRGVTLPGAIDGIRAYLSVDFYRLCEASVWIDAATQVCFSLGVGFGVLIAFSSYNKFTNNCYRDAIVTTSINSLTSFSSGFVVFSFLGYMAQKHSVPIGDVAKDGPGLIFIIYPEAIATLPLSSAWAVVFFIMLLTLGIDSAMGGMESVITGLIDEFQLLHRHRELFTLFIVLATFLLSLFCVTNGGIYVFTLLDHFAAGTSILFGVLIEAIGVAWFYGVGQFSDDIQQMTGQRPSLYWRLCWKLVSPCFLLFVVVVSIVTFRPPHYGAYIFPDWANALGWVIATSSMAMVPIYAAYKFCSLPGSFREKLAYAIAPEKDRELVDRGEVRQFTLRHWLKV

[9] = molecular target: T8, MT1 receptor (Homo sapiens, UniProt P48039); assay: Eurofins Cerep competition binding assay at MT1 receptor; settings: for MT1, percent of control-specific binding: 10 μM test ligand, [125I]2-iodomelatonin, recombinant receptor from CHO cells
T8 construct: host or cells: CHO cells (membrane preparation)
T8 sequence (P48039 whole entry): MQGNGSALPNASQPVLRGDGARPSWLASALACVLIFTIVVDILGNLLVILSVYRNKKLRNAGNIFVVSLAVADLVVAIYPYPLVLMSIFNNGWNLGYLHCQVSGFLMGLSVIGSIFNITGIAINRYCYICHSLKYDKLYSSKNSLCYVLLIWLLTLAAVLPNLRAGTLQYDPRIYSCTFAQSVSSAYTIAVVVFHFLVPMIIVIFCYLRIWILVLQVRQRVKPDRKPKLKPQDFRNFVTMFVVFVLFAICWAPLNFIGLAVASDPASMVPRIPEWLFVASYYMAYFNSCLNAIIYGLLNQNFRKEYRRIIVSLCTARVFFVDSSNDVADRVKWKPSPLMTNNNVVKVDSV

[10] = molecular target: T9, norepinephrine transporter (NET) (Homo sapiens, UniProt P23975); assay: Eurofins Cerep competition binding assay at norepinephrine transporter; settings: for NET, percent of control-specific binding: 10 μM test ligand, [3H]nisoxetine, recombinant transporter from CHO cells; for inhibition at 10 µM: read-out: NET, percent of control-specific binding, 10 μM test ligand, [3H]nisoxetine, recombinant transporter from CHO cells
T9 construct: host or cells: CHO cells (membrane preparation)
T9 sequence (P23975 whole entry): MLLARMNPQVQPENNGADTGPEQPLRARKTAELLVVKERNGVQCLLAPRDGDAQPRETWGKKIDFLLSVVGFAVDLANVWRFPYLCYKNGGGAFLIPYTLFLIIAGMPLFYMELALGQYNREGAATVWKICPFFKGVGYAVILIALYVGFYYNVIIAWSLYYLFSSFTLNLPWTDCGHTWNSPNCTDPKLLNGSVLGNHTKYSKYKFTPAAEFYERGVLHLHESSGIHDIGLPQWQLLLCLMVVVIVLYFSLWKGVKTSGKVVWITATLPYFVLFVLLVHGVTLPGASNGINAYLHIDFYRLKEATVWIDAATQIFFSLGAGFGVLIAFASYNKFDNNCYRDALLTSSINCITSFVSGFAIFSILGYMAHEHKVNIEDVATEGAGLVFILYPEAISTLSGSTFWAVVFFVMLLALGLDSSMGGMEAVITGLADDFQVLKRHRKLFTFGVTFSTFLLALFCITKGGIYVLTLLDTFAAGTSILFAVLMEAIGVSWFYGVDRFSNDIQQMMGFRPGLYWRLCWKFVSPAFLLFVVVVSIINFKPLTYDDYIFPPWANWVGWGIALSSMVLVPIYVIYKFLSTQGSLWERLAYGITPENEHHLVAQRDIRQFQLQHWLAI

[11] = molecular target: T1, 5-HT1A receptor; assay: 5-HT1A receptor functional cellular response (cAMP) assay; format: cell-based
[12] = read-out: MT1, percent of control-specific binding
[13] = read-out: MT1, percent of control-specific binding, 10 μM test ligand, [125I]2-iodomelatonin, recombinant receptor from CHO cells

| SMILES | inhibition at 10 µM [2] | inhibition at 10 µM [3] | inhibition at 10 µM [4] | inhibition at 10 µM [5] | inhibition at 10 µM [6] | inhibition at 10 µM [8] | inhibition at 10 µM [10] | inhibition at 10 µM [9, 13] | further results |
| --- | --- | --- | --- | --- | --- | --- | --- | --- | --- |
| CC(C(O)c1ccc2c(c1)OCO2)N(C)Cc1ccccc1 (single isomer, unassigned) [B(III) as diast. (iv)] | – | – | – | – | – | – | – | – | Ki ([1]; 5-HT1A, Ki): 16.9 µM; HT1A, percent of control-specific binding ([2]; 10 µM): 22%; HT2B, percent of control-specific binding ([3]; 10 µM): 28%; HT2C, percent of control-specific binding ([4]; 10 µM): 14%; HT7, percent of control-specific binding ([5]; 10 µM): 23%; α-2A, percent of control-specific binding ([6]; 10 µM): 42%; SERT, percent of control-specific binding [7]: 44%; DAT, percent of control-specific binding ([8]; 10 µM): 76%; MT1, percent of control-specific binding ([9]; 10 µM): 15%; NET, percent of control-specific binding ([10]; 10 µM): 25% |
| COc1cc(CCN)c(OC)cc1Br [2C-B] | – | – | – | – | – | – | – | – | EC50 ([11]; CHO-K1/5-HT1A/Gα15 cells stimulated with 4 μM forskolin, reduction of intracellular cAMP, read-out: 5-HT1A, EC50): 5.95 µM; HT1A, percent of control-specific binding [2]: 96%; HT2B, percent of control-specific binding [3]: 99%; HT7, percent of control-specific binding [5]: 88%; α-2A, percent of control-specific binding [6]: 88%; SERT, percent of control-specific binding [7]: 42%; DAT, percent of control-specific binding [8]: 5%; MT1, percent of control-specific binding [9]: 86%; NET, percent of control-specific binding [10]: 13% |
| COc1ccc2cccc(CCNC(C)=O)c2c1 [Agomelatine, agomelatine] | 58% | 93% | 92% | 20% | 2% | 1% | 1% | – | inhibition at 10 µM [7]: 30%; inhibition at 10 µM [9, 12]: 99% |
| CC(C(O)c1ccc2c(c1)OCO2)N(C)Cc1ccccc1 (stereo not drawn) [B(III) as diast. (iv)] | – | – | – | – | – | – | – | – | Ki ([1]; 5-HT1A, Ki): 16.9 µM |
| CC(NC(C)(C)C)C(=O)c1cccc(Cl)c1 (stereo not drawn) [Bupropion, bupropion] | -1% | -2% | 1% | 4% | 2% | 92% | – | 83% | – |
| CC(C(F)c1ccc2c(c1)OCO2)N1CCCC1 (stereo not drawn) [D(I) as diast. (v)] | – | – | – | – | – | – | – | – | EC50 [11]: > 1000 µM |
| C[S+](C)[O-] [DMSO, dimethylsulfoxide] | – | – | – | – | – | – | – | – | Ki ([1]; 5-HT1A, Ki): > 1000 µM |
| COc1cc(CC(C)N)c(OC)cc1Br (stereo not drawn) [DOB] | – | – | – | – | – | – | – | – | HT1A, percent of control-specific binding [2]: 75%; HT2B, percent of control-specific binding [3]: 97%; HT7, percent of control-specific binding [5]: 65%; α-2A, percent of control-specific binding [6]: 66%; SERT, percent of control-specific binding [7]: 53%; DAT, percent of control-specific binding [8]: 3%; MT1, percent of control-specific binding [9]: −3%; NET, percent of control-specific binding [10]: 6% |
| CNCC[C@H](Oc1cccc2ccccc12)c1cccs1 [Duloxetine, duloxetine] | 95% | 95% | 92% | – | 54% | – | – | 23% | – |
| CC(NCc1ccccc1)C(C)c1ccc2c(c1)OCO2 (stereo not drawn) [Ex(VI) as diast. (xi) and (xii)] | – | – | – | – | – | – | – | – | Ki ([1]; 5-HT1A, Ki): 65.9 µM |
| CN(C)CCCN1c2ccccc2CCc2ccccc21 [Imipramine, imipramine] | 34% | 94% | 98% | 93% | 57% | 23% | 99% | 29% | inhibition at 10 µM [7]: 98% |
| COc1ccc2[nH]cc(CCNC(C)=O)c2c1 [Melatonin, melatonin] | 46% | 52% | 19% | 8% | -7% | 4% | -2% | – | inhibition at 10 µM [9, 12]: 98% |
| O=c1n(CCCN2CCN(c3cccc(Cl)c3)CC2)nc2ccccn12 [Trazodone, trazodone] | 97% | 97% | 93% | 99% | 91% | 24% | -1% | 14% | – |
| N#Cc1ccc2[nH]cc(CCCCN3CCN(c4ccc5oc(C(N)=O)cc5c4)CC3)c2c1 [Vilazodone, vilazodone] | 99% | 96% | 92% | 83% | 65% | 98% | 99% | 84% | inhibition at 10 µM [7]: 100% |
| CCOc1c(OC)cc(CCN)cc1OC [escaline] | – | – | – | – | – | – | – | – | Ki ([1]; read-out: 5-HT1A, Ki): 12.4 µM; HT1A, percent of control-specific binding [2]: 44%; HT2B, percent of control-specific binding [3]: 81%; HT2C, percent of control-specific binding [4]: 95%; HT7, percent of control-specific binding [5]: 16%; α-2A, percent of control-specific binding [6]: 45%; SERT, percent of control-specific binding [7]: 0%; DAT, percent of control-specific binding [8]: 0%; MT1, percent of control-specific binding [9]: 0%; NET, percent of control-specific binding [10]: 6% |
| CN(C)CCc1c[nH]c2cccc(O)c12 [psilocin] | – | – | – | – | – | – | – | – | EC50 [11]: 0.957 µM |
| NCCc1c[nH]c2ccc(O)cc12 [serotonin] | 100% | – | – | 100% | 18% | 8% | -3% | 7% | – |
| Cc1ccc(Sc2ccccc2N2CCNCC2)c(C)c1 [vortioxetine] | – | 97% | 99% | 100% | 62% | 90% | 99% | 26% | inhibition at 10 µM [7]: 101% |
